Measurements as given in patent EP1328811B1, “HCV MOSAIC ANTIGEN COMPOSITION” (MedMira Inc., priority 2000, dated 2005).

System: anti-HCV antibodies
Experiment: Immunofiltration dotting assay of individual peptide-carrier conjugates (epitope mapping, Example 4)
Type: binding, human
Settings: for reactivity with positive HCV samples: peptide conjugates, independently of the carrier used (BSA, HSA, KLH), peptide-carrier mass ratio 0.5; for reactivity with positive HCV samples / reactivity with HCV positive samples: HCV positive specimens n=10; for reactivity with negative HCV samples: peptide-carrier conjugates, HCV negative specimens n=10
Text: Several versions of antibody capture assay formats are available which differ mainly according to the type of solid supports employed and the detection technology used to determine the presence of immunological complexes formed by antigen-antibody recognition and binding. A commercially available immunofiltration dotting assay procedure (MedMira Inc., Halifax, N.S.) was used to test for immunoreactivity of the peptide-carrier conjugates based on colloidal gold detection using a nitrocellulose membrane as a solid support and is described below.
The HCV positive/negative specimens used to evaluate the mosaic antigen composition were provided by Dr. Spencer Lee (Director of Virology/Immunology, Microbiology Division, Department of Pathology and Laboratory Medicine) of the Queen Elizabeth II Health Sciences Center (Halifax, Nova Scotia). All specimens were tested with the Abbott's HCV test using the Axsym system platform. The Riba-II (Chiron) immunoblot assay was used as a confirmation test.
The maleimide-activated carrier molecules (KLH, BSA and HSA) were purchased from Pierce (Rockford, IL) and conjugated with cysteine containing peptides using a peptide-carrier mass ratio of 0.5 except mentioned otherwise.
Typically, the conjugates were passively adsorbed at a concentration of 1 mg/ml (bicarbonate buffer, 50 mM, pH 9.6) by applying one microliter of peptide-carrier conjugate on the nitrocellulose membrane. The antigen dotted membrane was air-dried. Before the test, the membrane was primed with 3 drops of washing buffer (Tris/phosphate/sodium chloride, pH 9.6 containing 0.25% Tween®20). The tests were performed as follows.
One drop of specimen serum was added to the membrane and after complete absorption of the sample, the membrane was washed with 4 drops of washing buffer. Four drops of protein A/colloidal gold solution (concentration corresponding to an optical density of 2 at 520 nm) was added to the membrane and the membrane was washed with 3 more drops of washing solution. The results were recorded visually within 5 minutes after completion of the test.
The identification of major linear epitopes was carried out using selected peptides corresponding to various regions of the HCV polyprotein and panels of well-characterized HCV positive and negative human sera. Additionally, a comparison of different carrier components was made based on a sensitivity/specificity assessment of various peptide-carrier conjugates.
Peptides were individually conjugated to three different carriers (BSA, HSA and KLH) and adsorbed passively on a nitrocellulose membrane support. Tests were performed by immunofiltration dotting assay format using a,commercially available flow-through assay platform (MedMira Inc., Halifax, N.S.).

“MSTNPKPQRKTKRNTNRR [MDL-1, HCV core region antigenic peptide]” was tested, and the “reactivity with positive HCV samples” value was “more consistent reactivity” and the “reactivity with negative HCV samples” value was “No significant reactivity”.
In the case of PKARQPEGRAWAQPG [MDL-6], the “reactivity with HCV positive samples” value (peptide conjugated with BSA) is reported as “reactive with most HCV positive samples”, the “reactivity with HCV positive samples” value (peptide conjugated with HSA) is reported as “reactive with most HCV positive samples” and the “reactivity with HCV positive samples” value (peptide conjugated with KLH) is reported as “poorly reactive”.
With “KTKRNTNRRPQDVKF [MDL-2, HCV core region antigenic peptide]” the “reactivity with positive HCV samples” value was “more consistent reactivity” and the “reactivity with negative HCV samples” value was “No significant reactivity”.
In the case of “GPRLGVRATRKTSERSQP [MDL-4, HCV core region antigenic peptide]”, the “reactivity with HCV positive samples” value (peptide conjugated with BSA) is reported as “marginally reactive or unreactive”, the “reactivity with HCV positive samples” value (peptide conjugated with HSA) is reported as “marginally reactive or unreactive” and the “reactivity with HCV positive samples” value (peptide conjugated with KLH) is reported as “reactive with most HCV positive samples”.
In the case of “ATRKTSERSQPRGRRQPI [MDL-5, HCV core region antigenic peptide]”, the “reactivity with HCV positive samples” value (peptide conjugated with BSA) is reported as “reactive with most HCV positive samples”, the “reactivity with HCV positive samples” value (peptide conjugated with HSA) is reported as “unreactive” and the “reactivity with HCV positive samples” value (peptide conjugated with KLH) is reported as “reactive with most HCV positive samples”.
In the case of “GQIVGGVYLLPRRGP [MDL-3, HCV core region antigenic peptide]”, the “reactivity with positive HCV samples” value is reported as “more consistent reactivity” and the “reactivity with negative HCV samples” value is reported as “No significant reactivity”.
